A short description of the assay: Inhibition of C-terminal FLAG-His-tagged full length human CTPS1 measured after 60 mins by ADP-Glo assay. A general note: In ADP-Glo the light output rises with the ADP produced.
For orientation: IC50 means the concentration at which inhibition is half-maximal. For the compound `CCC(C(=O)Nc1ccc(-c2cncc(OC)n2)cc1F)c1ccnc(NS(=O)(=O)C2CC2)n1` (stereo not drawn), the IC50 was at most 100 nM. For `CCC(C(=O)Nc1ccc(-c2cncc(OCC(F)(F)F)n2)cc1)c1ccnc(NS(=O)(=O)C2CC2)n1` (stereo not drawn) the value was at most 100 nM; for `CCOc1cncc(-c2ccc(NC(=O)C3(c4ccnc(NS(=O)(=O)C5CC5)n4)CC3)cc2)n1`, at most 100 nM; for `CCC(C(=O)Nc1ccc(-c2cncc(C(F)(F)F)n2)cn1)c1ccnc(NS(=O)(=O)C2CC2)n1` (stereo not drawn), at most 100 nM. For `CCC(C(=O)Nc1ccc(-c2cncc(Cl)n2)cc1)c1ccnc(NS(=O)(=O)C2CC2)n1` (stereo not drawn) the value was above 100 nM; for `CCC(C(=O)Nc1ccc(-c2cncc(OCC(F)(F)F)c2)cc1F)c1ccnc(NS(=O)(=O)C2CC2)n1` (stereo not drawn), above 100 nM; for `CCOc1cncc(-c2ccc(NC(=O)C(CCOC)c3ccnc(NS(=O)(=O)C4CC4)n3)cc2)n1` (stereo not drawn), at most 100 nM. As for `CCC(C(=O)Nc1ccc(-c2cccnc2)cn1)c1ccnc(NS(=O)(=O)C2CC2)n1` (stereo not drawn), the figure is above 1000 nM; as for `CC(C(=O)Nc1ccc(-c2cccnc2)cc1)c1ccnc(NS(=O)(=O)C2CC2)n1` (stereo not drawn), above 100 nM.

For the compound `Cc1cc(-c2cncc(C(F)(F)F)n2)ccc1NC(=O)C(C)(C)c1ccnc(NS(C)(=O)=O)n1`, the IC50 is above 100 nM. For `CCC(C(=O)Nc1ccc(-c2cncc(C(F)(F)F)n2)cc1F)c1ccnc(NS(=O)(=O)C2CC2)n1` (stereo not drawn) the value was at most 100 nM; for `CCC(C(=O)Nc1ccc(-c2cncc(OC)n2)cc1)c1ccnc(NS(=O)(=O)C2CC2)n1` (stereo not drawn), at most 100 nM. For `CCC(C(=O)Nc1ccc(-c2cnccn2)cc1)c1ccnc(NS(=O)(=O)C2CC2)n1` (stereo not drawn) the value was above 100 nM; for `CCOc1cncc(-c2ccc(NC(=O)C(CC)c3ccnc(NS(=O)(=O)C4CC4)n3)nc2)n1` (stereo not drawn), at most 100 nM. In turn, `CCC(C(=O)Nc1ccc(-c2cncc(C(F)(F)F)n2)cc1)c1ccnc(NS(=O)(=O)C2CC2)n1` (stereo not drawn) came in with an IC50 above 100 nM. Compound `CCC(C(=O)Nc1ccc(-c2cncc(OCC(F)(F)F)c2)cc1)c1ccnc(NS(=O)(=O)C2CC2)n1` (stereo not drawn) returned an IC50 above 100 nM. In the case of `CCOc1cncc(-c2ccc(NC(=O)C(C)(C)c3ccnc(NS(C)(=O)=O)n3)cc2)n1`, the IC50 was at most 100 nM. For the compound `CCC(C(=O)Nc1ccc(-c2cncc(C(F)(F)F)c2)cn1)c1ccnc(NS(=O)(=O)C2CC2)n1` (stereo not drawn), the IC50 is above 100 nM. In the case of `CCC(C(=O)Nc1ccc(-c2cncc(OC(C)C)n2)cn1)c1ccnc(NS(=O)(=O)C2CC2)n1` (stereo not drawn), the half-inhibitory concentration (IC50) is at most 100 nM. For `CCC(C(=O)Nc1ccc(-c2cccnc2)cc1F)c1ccnc(NS(=O)(=O)C2CC2)n1` (stereo not drawn) the value was above 1000 nM. In turn, `CC(C)(C(=O)Nc1ccc(-c2cncc(C(F)(F)F)n2)cc1)c1ccnc(NS(C)(=O)=O)n1` showed an IC50 above 100 nM.

On to `CCC(C(=O)Nc1ccc(-c2cncc(C#N)c2)cc1)c1ccnc(NS(=O)(=O)C2CC2)n1` (stereo not drawn), for which the IC50 is above 100 nM.

In turn, `CCOc1cncc(-c2ccc(NC(=O)C(CC)c3ccnc(NS(=O)(=O)C4CC4)n3)c(F)c2)n1` (stereo not drawn) returned a 50% inhibitory concentration (IC50) of at most 100 nM. As for `CCOc1cncc(-c2ccc(NC(=O)C(C)(C)c3ccnc(NS(=O)(=O)C(C)(C)C)n3)cc2)n1`, the half-maximal inhibitory concentration (IC50) was above 1000 nM. As for `CCC(C(=O)Nc1ccc(-c2cccnc2)cc1)c1ccnc(NS(=O)(=O)C2CC2)n1` (stereo not drawn), the figure is above 100 nM. Consider `CCC(C(=O)Nc1ccc(-c2cncc(OCC(F)(F)F)n2)cc1F)c1ccnc(NS(=O)(=O)C2CC2)n1` (stereo not drawn), for which the IC50 was at most 100 nM. As to `CCC(C(=O)Nc1ccc(-c2cncc(OC(C)C)n2)cc1)c1ccnc(NS(=O)(=O)C2CC2)n1` (stereo not drawn), the half-maximal inhibitory concentration (IC50) is at most 100 nM. As for `CCC(C(=O)Nc1ccc(-c2cncc(OCC(F)(F)F)c2)cn1)c1ccnc(NS(=O)(=O)C2CC2)n1` (stereo not drawn), the figure is above 100 nM; as for `CCOc1cncc(-c2ccc(NC(=O)C(CC)c3ccnc(NS(=O)(=O)C4CC4)n3)cc2)n1` (stereo not drawn), at most 100 nM. As for `CCC(C(=O)Nc1ccc(-c2cncc(Cl)c2)cc1F)c1ccnc(NS(=O)(=O)C2CC2)n1` (stereo not drawn), the figure is above 100 nM; as for `CCC(C(=O)Nc1ccc(-c2cncc(OC(C)C)n2)cc1F)c1ccnc(NS(=O)(=O)C2CC2)n1` (stereo not drawn), at most 100 nM. For `CCC(C(=O)Nc1ccc(-c2cncc(OC(C)C)c2)cc1)c1ccnc(NS(=O)(=O)C2CC2)n1` (stereo not drawn) the value was above 100 nM. `CCC(C(=O)Nc1ccc(-c2cncc(OC(C)C)c2)cc1F)c1ccnc(NS(=O)(=O)C2CC2)n1` (stereo not drawn) returned an IC50 above 100 nM.

For the origin of these results see ChEMBL document CHEMBL5052818, “Aminopyrimidine derivatives as ctps1 inhibitors” (2019).
